Test results published in patent US7692011B2, “8-hydroxy and 8-mercapto quinazolinones” (Prana Biotechnology Limited, priority 2002, dated 2010).
In brackets after ≈: the same amount, converted by molar mass. Read-outs that look alike come from different tables or passages of the source.

Columns and labels:
[1] = Assay 12 Turbidimetric solubility measurements; format: physicochemical; conditions: kinetic from dmso stock, nephelometry
Description: Turbidimetric Solubility Measurements
The solubility estimate was measured at both pH 2.0 and pH 6.5. This is within the pH range that can be anticipated along the proximal gastrointestinal tract in humans.
The compounds were dissolved in DMSO to appropriate concentrations and then spiked into either 0.01M HCl (approx. pH=2.0) or pH 6.5 isotonic phosphate buffer, the final DMSO concentration being 1%. Samples were then analysed via Nephelometry to determine a solubility range. [as per D. Bevan and R. S. Lloyd, Anal. Chem. 2000, 72, 1781-1787].

[2] = tested on: Neuronal cortical cells treated with Aβ1-42; assay: Assay 3(c) Aβ neurotoxicity and Aβ neuroprotection (MTS); format: cell-based, mouse; conditions: 20 uM Aβ1-42, 4 days
Description: Primary Cortical Neuronal Cultures
Cortical cultures were prepared as previously described (White et al., 1998). Embryonic day 14 BL6Jx129sv mouse cortices were removed, dissected free of meninges and dissociated in 0.025% (wt/vol) trypsin. Dissociated cells were plated in 48 well culture plates at a density of 2×10^6 cells/mL in MEM with 25% (vol/vol) FCS and 5% (vol/vol) HS and incubated at 37° C., 2 hrs. Media was then replaced with Neurobasal media (Invitrogen Life Technologies) and B27 supplements (Invitrogen Life Technologies). Cultures were maintained at 37° C. in 5% CO2. Prior to experimentation, the culture medium was replaced with Neurobasal media and B27 minus antioxidants (Invitrogen Life Technologies).
(c) Assay for Aβ Neurotoxicity and Aβ Neuroprotection
Neuronal cortical cells were cultured for five days as per Assay 2. On day six the neurobasal (NB) media (Invitrogen Life Technologies) and B27 supplement (Invitrogen Life Technologies) were replaced with NB media and B27 supplement (no antioxidants). On day six, test compounds were individually added to the neuronal cell cultures:
(§1) The test compounds were dissolved in 100% DMSO to a concentration of 2.5 mM (10 mM if excess compound was weighed out per vial—then diluted to 2.5 mM). 2.5 mM stock solution was serially diluted 1 in 10 to give working solutions of 250 uM, 25 uM, 2.5 uM.
Aβ was initially dissolved in 20 mM NaOH to a concentration of 1 mM and sonicated for 5 minutes. The peptide was then diluted in H2O and 10×PBS to a final concentration of 200 uM Aβ in 1×PBS. The peptide was again sonicated for 5 minutes and then spun at 14000 rpm for 5 min and transferred to a fresh tube.
as §1, with “in 10 [in NB media and B27 (no antioxidants)] to give” for “in 10 to give”, “2.5 uM. Test compounds were not added directly to cells, instead they were added to a 48 well ‘Drug Plate’ as comprised below:” for “2.5 uM.”
Preparation of “Drug Plate”:
• Well 1: 515 ul NB+B27(no antioxidant)*+24 ul 25 uM test compound+60 ul Aβ diluent** • Well 2: 515 ul NB+B27(no antioxidant)+24 ul 250 uM test compound+60 ul Aβ diluent • Well 3: 515 ul NB+B27(no antioxidant)+24 ul test compound diluent***+60 ul Aβ1-42 • Well 4: 515 ul NB+B27(no antioxidant)+24 ul 2.5 uM test compound+60 ul Aβ1-42 • Well 5: 515 ul NB+B27(no antioxidant)+24 ul 25 uM test compound+60 ul Aβ1-42 • Well 6: 515 ul NB+B27(no antioxidant)+24 ul 250 uM test compound+60 ul […] • Well 7: 515 ul NB+B27(no antioxidant)+24 ul test compound diluent+60 ul Aβ1-42 diluent • Well 8: 600 ul NB+B27(no antioxidant) • N.B. 60 ul Aβ1-42 equals 20 ul Aβ1-42 per well equals 20 uM Aβ1-42
The Drug Plate was incubated at 37° C. for 15 mins. 200 ul of each well was added in triplicate to the corresponding cell plate. The cell plate was incubated at 37 C, for 4 days. • * NB media+B27 (no antioxidants), • ** Aβ diluent 2 mM NaOH, 1×PBS • *** PBT diluent 10% DMSO in NB+B27(no antioxidant) Completion of the Assay:
On the 4th day after treating the cells the assay is completed by adding MTS to the cells.

Aβ 1-42 = biological target: T1, Aβ 1-42 (Homo sapiens, UniProt P05067); assay: Assay 1 Fluorometric H2O2 assay: inhibition of hydrogen peroxide generation by Aβ in the presence of copper; format: biochemical; conditions: Aβ 1-42 with Cu-Gly, DCF fluorescence
T1 construct: The reaction solutions contained Aβ 1-42
Description: Assay 1. Fluorometric H2O2 Assay
A fluorometric assay was used to test the ability of a test compound to inhibit hydrogen peroxide generation by Aβ in the presence of copper based on dichlorofluoroscein diacetate (DCF; Molecular Probes, Eugene Oreg.). The DCF solution (5 mM) in 100% dimethyl sulphoxide (previously purged with argon for 1 hr at 20° C.) was deacetylated in the presence of 0.025M NaOH for 30 min and neutralised at pH 7.4 to a final concentration of 1 mM. Horseradish peroxidase ([…]) stock solution was prepared to 1 μM at pH 7.4. The reactions were carried out in PBS, pH 7.4 in a 96 well plate (total volume=250 μl/well). The reaction solutions contained Aβ 1-42 at concentrations in the range of 50 nM to 1 μM, copper-glycine chelate (Cu-Gly), was prepared by adding CuCl2 to glycine in the ratio of 1:6 and added to the Aβ in the proportion 2Cu-Gly: 1Aβ), reducing agents including dopamine (5 μM) or ascorbic acid, deacetylated DCF 100 μM, and HRP, 0.1 μM. 1-10 μM EDTA or another chelator may also be present as a control for free copper, but was not required for the assay to function. The reaction mixture was incubated at 37 C for 60 min. Catalase (4000 units/ml) and H2O2 (1-2.5 μM) standards in PBS pH 7.4 may be included as positive controls. Fluorescence was recorded using a plate reader with excitation and emission filters at […] respectively. H2O2 concentration may be established by comparing fluorescence with the H2O2 standards. Inhibition of Aβ H2O2 production was assayed by including a given concentration of test compound(s) in the test wells.

[3] = aqueous buffer, pH 6.5 isotonic phosphate buffer, 1% DMSO, read-out: Assay 12 Solubility at pH 6.5
[4] = simulated gastric fluid, 0.01 M HCl, pH 2.0, 1% DMSO, read-out: Assay 12 Solubility in 0.01 M HCl, pH 2.0

T1 sequence (P05067 672-713 limits assumed): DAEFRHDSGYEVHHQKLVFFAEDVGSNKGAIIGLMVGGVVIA

Structure (SMILES) | solubility [1, 3] | solubility [1, 4] | Assay 3(c) Neuroprotection (% inhibition of Abeta toxicity) [2] | IC50 (Aβ 1-42)
Oc1c(N2CCOCC2)ncc2cccnc12 [PBT-1053, 7-Morpholin-4-yl-[1,6]naphthyridin-8-ol] | > 200 µg/mL | 50 to 100 µg/mL (≈ 216 to 432 µM) | 11% | 630 nM
O=c1c2c(Cl)cc(Cl)c(O)c2ncn1C1CC1 [PBT-1061, 5,7-Dichloro-3-cyclopropyl-8-hydroxy-3H-quinazolin-4-one] | 12.5 to 25 µg/mL (≈ 46.1 to 92.2 µM) | 3.1 to 6.2 µg/mL (≈ 11.4 to 22.9 µM) | 16% | 450 nM
O=c1c(-c2ccc(Cl)cc2)cnc2c(O)c(I)ccn12 [PBT-1063, 3-(4-Chlorophenyl)-9-hydroxy-8-iodopyrido[1,2-a]pyrimidin-4-one] | < 5 µg/mL | < 10 µg/mL | 3% | 620 nM
